Source: patent US20140357577A1, “HIV Membrane Fusion Inhibitors” (priority 2011, published 2014)
Starred links: 1 amine or outer side, 2 acyl side, 3 side chain; linkers in the order of their positions; H or OH if unused. *: point of attachment. cholesteryl‑oxycarbonylmethyl = CC(C)CCC[C@@H](C)[C@H]1CC[C@H]2[C@@H]3CC=C4C[C@@H](OC(=O)C*)CC[C@]4(C)[C@H]3CC[C@]12C; Palmitoyl = CCCCCCCCCCCCCCCC(=O)*; Suc = O=C(CCC(=O)[*:2])[*:1]

Columns and labels:
[1] = system: HIV-IIIB + 50% HS; assay: Standard AVE (50% Human Serum), HIV-1 replication assay in MT4-LTR-EGFP cells; type: cell-based; settings: fold change vs EC50 in the assay without human serum
Description: The HIV-1 replication assay (with 50% human serum) measures virus replication as an induction of enhanced green fluorescent protein (EGFP) expression, in the presence of 50% human serum. The indicator MT4-LTR-EGFP cells contain an EGFP gene under the control of the HIV-1 LTR promoter sequence. Successful HIV-1 infection results in viral Tat protein expression and subsequent induction of EGFP expression. Compounds/peptides inhibiting HIV-1 infection are expected to reduce EGFP expression as compared to the untreated HIV-infected control. Compounds/peptides binding to human serum are expected to have a reduced activity for inhibiting the virus in the assay.
Serial 4-fold dilutions of test compounds/peptides were mixed with HIV-1 and MT4-LTR-EGFP cells and incubated at 37° C., in the presence of 50% human serum. After 3 days, the wells were examined for EGFP expression using an argon laser-scanning microscope. The effective compound/peptide concentration inhibiting 50% of the virus-induced EGFP signal (EC50) was determined by linear interpolation of the EGFP signal vs. logarithm of the compound concentration; T20, C34 and Sifuvirtide were added as reference compounds. Results were reported as a fold change in EC50, as compared with the acquired EC50 in the assay without human serum.

[2] = system: HIV wild type virus strain IIIB; assay: Standard Anti-Viral-Experiment (AVE), HIV-1 replication assay in MT4-LTR-EGFP cells, wild type IIIB; type: cell-based; settings: 3 days, EGFP signal
Description: • Standard Anti-Viral-Experiment “AVE” (wild type HIV strain IIIB+HIV strain HXB2D side directed mutants V38A and Q40H)
The HIV-1 replication assay measures virus replication (HIV wild type virus strain 111B or HXB2D, or a HIV mutant virus strain HXB2D with mutation V38A or Q40H in the gp41 gene) as an induction of enhanced green fluorescent protein (EGFP) expression. The indicator MT4-LTR-EGFP cells contain an EGFP gene under the control of the HIV-1 LTR promoter sequence. Successful HIV-1 infection results in viral Tat protein expression and subsequent induction of EGFP expression. Compounds/peptides inhibiting HIV-1 infection are expected to reduce EGFP expression as compared to the untreated HIV-infected control.
Serial 4-fold dilutions of test compounds/peptides were mixed with HIV-1 (IIIB, HXB2D, or a HXB2D mutant virus (V38A or Q40H)) and MT4-LTR-EGFP cells and incubated at 37° C. After 3 days, the wells were examined for EGFP expression using an argon laser-scanning microscope. The effective compound/peptide concentration inhibiting 50% of the virus-induced EGFP signal (EC50) was determined by linear interpolation of the EGFP signal vs. logarithm of the compound concentration; (T20, C34 and Sifuvirtide were added as reference compounds). For the V38A and Q40H mutant viruses, results were reported as a fold change in EC50, as compared with a drug-susceptible wild type strain HXB2D, which forms the backbone of the mutant virus. • Standard AVE (50% Human Serum)

For “Suc-ANYAALIEALIRAAQEQQEKNEAALR-NH2 (SMILES CC[C@H](C)[C@H](NC(=O)[C@H](CC(C)C)NC(=O)[C@H](C)NC(=O)[C@H](CCC(=O)O)NC(=O)[C@@H](NC(=O)[C@H](CC(C)C)NC(=O)[C@H](C)NC(=O)[C@H](C)NC(=O)[C@H](Cc1ccc(O)cc1)NC(=O)[C@H](CC(N)=O)NC(=O)[C@H](C)NC(=O)CCC(=O)O)[C@@H](C)CC)C(=O)N[C@@H](CCCNC(=N)N)C(=O)N[C@@H](C)C(=O)N[C@@H](C)C(=O)N[C@@H](CCC(N)=O)C(=O)N[C@@H](CCC(=O)O)C(=O)N[C@@H](CCC(N)=O)C(=O)N[C@@H](CCC(N)=O)C(=O)N[C@@H](CCC(=O)O)C(=O)N[C@@H](CCCCN)C(=O)N[C@@H](CC(N)=O)C(=O)N[C@@H](CCC(=O)O)C(=O)N[C@@H](C)C(=O)N[C@@H](C)C(=O)N[C@@H](CC(C)C)C(=O)N[C@@H](CCCNC(=N)N)C(N)=O) [Peptide 3]”, the “HIV-IIIB + 50% HS (Fold change in EC50)” value [1] was 0.4 and the EC50 [2] was 22 nM.

“Suc-ANYLALIEALIRAAQEQQEKNEAAL-NH2 (SMILES CC[C@H](C)[C@H](NC(=O)[C@H](CC(C)C)NC(=O)[C@H](C)NC(=O)[C@H](CCC(=O)O)NC(=O)[C@@H](NC(=O)[C@H](CC(C)C)NC(=O)[C@H](C)NC(=O)[C@H](CC(C)C)NC(=O)[C@H](Cc1ccc(O)cc1)NC(=O)[C@H](CC(N)=O)NC(=O)[C@H](C)NC(=O)CCC(=O)O)[C@@H](C)CC)C(=O)N[C@@H](CCCNC(=N)N)C(=O)N[C@@H](C)C(=O)N[C@@H](C)C(=O)N[C@@H](CCC(N)=O)C(=O)N[C@@H](CCC(=O)O)C(=O)N[C@@H](CCC(N)=O)C(=O)N[C@@H](CCC(N)=O)C(=O)N[C@@H](CCC(=O)O)C(=O)N[C@@H](CCCCN)C(=O)N[C@@H](CC(N)=O)C(=O)N[C@@H](CCC(=O)O)C(=O)N[C@@H](C)C(=O)N[C@@H](C)C(=O)N[C@@H](CC(C)C)C(N)=O) [Peptide 1]” was tested, and the “HIV-IIIB + 50% HS (Fold change in EC50)” value [1] was 0.4 and the EC50 [2] was 4 nM.

With “Suc-ECYLRCIEELIRKAQEQQEKNEAALRGSGC(cholesteryl-oxycarbonylmethyl)-NH2 (Suc-ECYLRCIEELIRKAQEQQEKNEAALRGSGC(cholesteryl‑oxycarbonylmethyl)-NH2; cysteine pairing not given here) [Peptide 82]” the “HIV-IIIB + 50% HS (Fold change in EC50)” value [1] was 6 and the EC50 [2] was 0.05 nM.

For “Suc-ECYLRCIEELIRKAQEQQEKNEAALRGSGK(palmitoyl)-NH2 (Suc-ECYLRCIEELIRKAQEQQEKNEAALRGSGK(Palmitoyl)-NH2; cysteine pairing not given here) [Peptide 88]”, the “HIV-IIIB + 50% HS (Fold change in EC50)” value [1] was 3 and the EC50 [2] was 0.06 nM.

In the case of “Suc-ENYLRLIEELIRKAQEQQEKNEAALRGSGC(cholesteryl-oxycarbonylmethyl)-NH2 (Suc-ENYLRLIEELIRKAQEQQEKNEAALRGSGC(cholesteryl‑oxycarbonylmethyl)-NH2; SMILES CC[C@H](C)[C@H](NC(=O)[C@H](CC(C)C)NC(=O)[C@H](CCC(=O)O)NC(=O)[C@H](CCC(=O)O)NC(=O)[C@@H](NC(=O)[C@H](CC(C)C)NC(=O)[C@H](CCCNC(=N)N)NC(=O)[C@H](CC(C)C)NC(=O)[C@H](Cc1ccc(O)cc1)NC(=O)[C@H](CC(N)=O)NC(=O)[C@H](CCC(=O)O)NC(=O)CCC(=O)O)[C@@H](C)CC)C(=O)N[C@@H](CCCNC(=N)N)C(=O)N[C@@H](CCCCN)C(=O)N[C@@H](C)C(=O)N[C@@H](CCC(N)=O)C(=O)N[C@@H](CCC(=O)O)C(=O)N[C@@H](CCC(N)=O)C(=O)N[C@@H](CCC(N)=O)C(=O)N[C@@H](CCC(=O)O)C(=O)N[C@@H](CCCCN)C(=O)N[C@@H](CC(N)=O)C(=O)N[C@@H](CCC(=O)O)C(=O)N[C@@H](C)C(=O)N[C@@H](C)C(=O)N[C@@H](CC(C)C)C(=O)N[C@@H](CCCNC(=N)N)C(=O)NCC(=O)N[C@@H](CO)C(=O)NCC(=O)N[C@@H](CSCC(=O)O[C@H]1CC[C@@]2(C)C(=CC[C@H]3[C@@H]4CC[C@H]([C@H](C)CCCC(C)C)[C@@]4(C)CC[C@@H]32)C1)C(N)=O) [Peptide 32]”, the “HIV-IIIB + 50% HS (Fold change in EC50)” value [1] is reported as 13 and the EC50 [2] is reported as 0.04 nM.
